Reference: patent publication US20210221785A1, “AMINO-PYRIMIDONYL DERIVATIVES, A PROCESS FOR THEIR PREPARATION AND PHARMACEUTICAL COMPOSITIONS CONTAINING THEM” (LES LABORATOIRES SERVIER, priority 2018, published 2021)

How the values were obtained:
[1] = target: T1, His-His-USP7 (aa208-560, |C315A|) (Homo sapiens, UniProt Q93009, C315A); test: Evaluation of the inhibition of USP7 by the Fluorescence Intensity (FLINT) readings; assay type: biochemical; settings: 0.25 nM His-His-USP7, compound incubated 60 minutes at 30° C., 500 nM Ubiquitin-Rhodamine-110 substrate; 50% reduction in kinetic rate
T1 construct: His-His-USP7 (aa208-560, |C315A|); His-His (N)
Experimental: USP7 activity was measured using Rhodamine-110 c-terminal labelled Ubiquitin as a substrate (UbiQ Bio). Incubation with USP7 results in the release of Rhodamine-110 leading to an increase in fluorescence which can be used in the continuous measurement of USP7 activity.
The USP7 reactions were performed in a 50 μL volume, in 384 well black solid low binding plates (Corning #3575). The reaction buffer consisted of 100 mM Bicine pH 8.0, 0.01% TritonX100, 1 mM TCEP, and 10% DMSO.
0.25 nM His-His-USP7 (aa208-560, |C315A|) was incubated with compound (final concentration 10% DMSO) for 60 minutes at 30° C. The reaction was then initiated by the addition of 500 nM Ubiquitin-Rhodamme-110 substrate and the plate read every 3 minutes for 21 minutes to measure the release of Rhodamine-110. Fluorescence Intensity (FLINT) readings were measured using a […] plate reader (Ex.485 nm, Em.535 nm).
The inhibition of increasing doses of compound was expressed as a percentage reduction in kinetic rate compared to the kinetic rates established between ‘DMSO only’ and ‘total inhibition’ controls (no USP7). The inhibitory concentrations that gave a 50% reduction in kinetic rate (IC50) were determined, from 11-point dose response cures, in XL-Fit using a 4-Parameter Logistic Model 205 (Sigmoidal Dose-Response Model).

[2] = test system: Z138 mantle cell lymphoma tumour cell lines; test: In vitro cytotoxicity, MTT assay; assay type: cell-based; settings: Z138 cells exposed to the test compounds for 96 hours, cell viability vs DMSO treated cells
Experimental: The cytotoxicity studies were evaluated by MTT [3-(4,5-dimethylthiazol-2-yl)-2,5-diphenyltetrazolium bromide] assay and carried out on Z138 mantle cell lymphoma tumour cell lines. The cells are distributed onto microplates and exposed to the test compounds for 96 hours. MTT is then added for 4 hours and converted by NAD(P)H-dependent cellular oxidoreductase enzymes in formazan, which has a purple color. The viable cell number is proportional to the production of formuan salts and cell viability can be quantified by the absorbance of the solution at 540 nm with a speetrophotometer (Carmichael et al., Cancer Res. 1987, 47, 936-942).

T1 sequence (Q93009 208-560 C315A): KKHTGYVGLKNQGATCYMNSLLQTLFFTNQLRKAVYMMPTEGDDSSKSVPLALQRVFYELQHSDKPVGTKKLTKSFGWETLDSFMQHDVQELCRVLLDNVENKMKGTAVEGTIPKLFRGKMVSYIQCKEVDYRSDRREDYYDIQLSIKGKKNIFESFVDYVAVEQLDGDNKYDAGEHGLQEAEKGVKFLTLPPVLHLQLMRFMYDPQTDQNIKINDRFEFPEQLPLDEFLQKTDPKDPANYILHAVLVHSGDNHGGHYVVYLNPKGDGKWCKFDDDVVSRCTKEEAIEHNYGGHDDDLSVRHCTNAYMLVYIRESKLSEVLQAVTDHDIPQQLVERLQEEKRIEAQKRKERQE

SMILES | IC50 [1] | IC50 ([2]; Homo sapiens, Z-138, 96 h) | IC50 [2] | IC50 ([2]; Homo sapiens, Z-138)
COc1cc(O)cc(Oc2ncn(CC3(O)CCN(C(=O)[C@@H]4CCC(F)(F)C[C@H]4c4ccccc4)CC3)c(=O)c2N)c1 [Example 15, 5-amino-3-({1-[(1R,2R)-4,4-difluoro-2-phenylcyclohexane-1-carbonyl]-4-hydroxypiperidin-4-yl}methyl)-6-(3-hydroxy-5-methoxyphenoxy)pyrimidin-4(3H)-one] | 0.0235 µM | 0.0195 µM |  | 
Nc1c(Oc2ccc(F)cc2)ncn(CC2(O)CCN(C(=O)[C@@H]3CCC(F)(C#CC4CC4)C[C@H]3c3ccccc3)CC2)c1=O (relative stereo) [Example 124, rel-5-amino-3-[(1 -{[(1R,2 R)-4-(2-cyclopropylethynyl)-4-fluoro-2-phenylcyclohexyl]carbonyl}-4-hydroxypiperidin-4-yl)methyl]-6-(4-fluorophenoxy)pyrimidin-1-one] | 0.0896 µM | 0.236 µM |  | 
Nc1cccc(C#C[C@@]2(F)CC[C@@H](C(=O)N3CCC(O)(Cn4cnc(Oc5ccc(F)cc5)c(N)c4=O)CC3)[C@H](c3ccccc3)C2)n1 [Example 161, 5-amino-3-[(1-{[(1R,2R,4R)-4-[2-(6-aminopyridin-2-yl)ethynyl]-4-fluoro-2-phenylcyclohexyl]carbonyl}-4-hydroxypiperidin-4-yl)methyl]-6-(4-fluurophenoxy)pyrimidin-4-one] | 0.0294 µM |  | 0.0126 µM | 
NCc1ccc(Oc2ncn(CC3(O)CCN(C(=O)[C@@H]4CCC(F)(F)C[C@H]4c4ccccc4)CC3)c(=O)c2N)cc1 [Example 59, 5-amino-6-[4-(aminomethyl)phenoxy]-3-({1-[(1R,2R)-4,4-difluoro-2-phenylcyclohexane-1-carbonyl]-4-hydroxypiperidin-4-yl}methyl)pyrimidin-4(3H)-one] | 0.0042 µM | 0.064 µM |  | 
Nc1c(Oc2cccc(C3CNCCO3)c2)ncn(CC2(O)CCN(C(=O)[C@@H]3CCC(F)(F)C[C@H]3c3ccccc3)CC2)c1=O (stereo partly drawn) [Example 115, 5-amino-3-([1-[(1R,2R)-4,4-difluoro-2-phenylcyclohexane-1-carbonyl]-4-hydroxypiperidin-4-yl]methyl)-6-[3-(morpholin-2-yl)phenoxy]pyrimidin-4(3H)-one] | 0.0372 µM | 0.85 µM |  | 
Nc1c(Oc2ccc(C3CCCN3)cc2)ncn(CC2(O)CCN(C(=O)[C@@H]3CCC(F)(F)C[C@H]3c3ccccc3)CC2)c1=O (stereo partly drawn) [Example 34, 5-amino-3({1-[(1R,2R)-4,4-difluoro-2-phenylcyclohexane-1-carbonyl]-4-hydroxypiperidin-4-yl}methyl)-6-[4-(pyrrolidin-2-yl)phenoxy]pyrimidin-4(3H)-one] | 0.0108 µM | 0.52 µM |  | 
COc1cc(Oc2ncn(CC3(O)CCN(C(=O)[C@@H]4CCC(F)(F)C[C@H]4c4ccccc4)CC3)c(=O)c2N)ccc1Cl [Example 12, 5-amino-6-(4-chloro-3-methoxy-phenoxy)-3-({1-[(1R,2R)-4,4-difluoro-2-phenylcyclohexane-1-carbonyl]-4-hydroxypiperidin-4-yl}methyl)pyrimidin-4(3H)-one] | 0.0571 µM |  |  | 0.0909 µM
Nc1c(Oc2ccc(F)c(O)c2)ncn(CC2(O)CCN(C(=O)[C@@H]3CCC(F)(F)C[C@H]3c3ccccc3)CC2)c1=O [Example 41, 5-amino-3-({1-[(1R,2R)-4,4-difluoro-2-phenylcyclohexane-1-carbonyl]-4-hydroxypiperidin-4-yl}methyl)-6-(4-fluoro-3-hydroxyphenoxy)pyrimidin-4(3H)-one] | 0.042 µM | 0.0096 µM |  | 
NCc1ccc(Oc2ncn(C[C@@]3(O)CCN(C(=O)[C@@H]4CCC(F)(F)C[C@H]4c4ccccc4)CC3(F)F)c(=O)c2N)cc1 [Example 90, 5-amino-6-[4-(aminomethyl)phenoxy]-3-({(4S)-1-[(1R,2R)-4,4-difluoro-2-phenylcyclohexane-1-carbonyl]-3,3-difluoro-4-hydroxypiperidin-4-yl}methyl)pyrimidin-4(3H)-one] | 0.0039 µM | 0.16 µM |  | 
Nc1c(Oc2cccc(O)c2)ncn(CC2(O)CCN(C(=O)[C@@H]3CCC(F)(F)C[C@H]3c3ccccc3)CC2)c1=O [Example 64, 5-amino-3-({1-[(1R,2R)-4,4-difluoro-2-phenylcyclohexnne-1-carbonyl]-4-hydroxypiperidin-4-yl}methyl)-6-(3-hydroxyphenoxy)pyrimidin-4(3H)-one] | 0.021 µM | 0.014 µM |  | 
Nc1c(Oc2ccc(F)cc2)ncn(CC2(O)CCN(C(=O)C3CCC(O)(Cc4ccc(F)cc4)CC3c3ccccc3)CC2)c1=O [Example 99, rel-5-amino-6-(4-fluorophenoxy)-3-({1-[(1R,2R,4R)-4-[(4-fluorophenyl))methyl]-4-hydroxy-2-phenylcyclohexanecarbonyl]-4-hydroxypiperidin-4-yl}methyl)-3,4-dihydropyrimidin-4-one] |  | 0.0128 µM |  | 
NC(=O)c1ccc(Oc2ncn(CC3(O)CCN(C(=O)[C@@H]4CCC(F)(F)C[C@H]4c4ccccc4)CC3)c(=O)c2N)cc1F [Example 81, 4-{[5-amino-1-({1-[(1R,2R)-4,4-difluoro-2-phenylcyclohexane-1-carbonyl]-4-hydroxypiperidin-4-yl}methyl)-6-oxo-1,6-dihydropyrimidin-4-yl]oxy}-2-fluorobenzamide] | 0.403 µM |  |  | 
N#Cc1ccc(Oc2ncn(CC3(O)CCN(C(=O)[C@@H]4CCC(F)(F)C[C@H]4c4ccccc4)CC3)c(=O)c2N)c(Cl)c1 [Example 53, 4-{[5-amino-1-([1-[(1R,2R)-4,4-difluoro-2-phenylcyclohexane-1-carbanyl]-4-hydroxypiperidin-4-yl]methyl)-6-oxo-1,6-dihydropyrimidin-4-yl]oxy}-3-chlorobenzonitrile] | 0.439 µM |  |  | 
Nc1c(Oc2ccc([C@@H](N)C(F)(F)F)cc2)ncn(CC2(O)CCN(C(=O)[C@@H]3CCC(F)(F)C[C@H]3c3ccccc3)CC2)c1=O [Example 116, 5-amino-6-{4-[(1R)-1-amino-2,2,2-trifluoroethyl]phenoxy}-3-({1-[(1R,2R)-4,4-difluoro-2-phenylcyclohexane-1-carbonyl]-4-hydroypiperidin-4-yl}methyl)pyrimidin-4(3H)-one] | 0.0862 µM |  |  | 
Nc1c(Oc2ccc(F)cc2)ncn(C[C@]2(O)CCN(C(=O)[C@@H]3CCC(F)(F)C[C@H]3c3ccccc3)CC2(F)F)c1=O [Example 79, 5-amino-3-({(4R)-1-[(1R,2R)-4,4-difluoro-2-phenylcyclohexane-1-carbonyl]-3,3-difluoro-4-hydroxypiperidin-4-yl}methyl)-6-(4-fluorophenoxy)pyrimidin-4(3H)-one] | 0.228 µM |  |  | 
Nc1c(Oc2ccc(CC(F)(F)F)cc2)ncn(CC2(O)CCN(C(=O)[C@@H]3CCC(F)(F)C[C@H]3c3ccccc3)CC2)c1=O [Example 37, 5-amino-3-({1-[(1R,2R)-4,4-difluoro-2-phenylcyclohexane-1-carbonyl]-4-hydroxypiperidin-4-yl}methyl)-6-[4-(2,2,2-trifluoroethyl)phenoxyl]pyrimidin-4(3H)-one] | 0.158 µM |  |  | 
Nc1c(Oc2ccccc2F)ncn(CC2(O)CCN(C(=O)[C@@H]3CCC(F)(F)C[C@H]3c3ccccc3)CC2)c1=O [Example 2, 5-amino-3-({1-[(1R,2R)-4,4-difluoro-2-phenylcyclohexane-1-carbonyl]-4-hydroxypiperidin-4-yl}methyl)-6-(2-fluorophenoxy)pyrimidin-4(3H)-one] | 0.304 µM |  |  | 
C#C[C@@]1(OC)CC[C@@H](C(=O)N2CCC(O)(Cn3cnc(Oc4ccc(F)cc4)c(N)c3=O)CC2)[C@H](c2ccccc2)C1 [Example 155, 5-amino-3-[(1-{[(1R,2R,4R)-4-ethynyl-4-methoxy-2-phenylcyclohexyl]carbonyl}-4-hydroxypiperidin-4-yl)methyl]-6-(4-fluorophenoxy)pyrimidin-4-one] | 0.179 µM |  |  | 
Nc1c(Oc2cccc(C(F)(F)F)c2)ncn(CC2(O)CCN(C(=O)[C@@H]3CCC(F)(F)C[C@H]3c3ccccc3)CC2)c1=O [Example 22, 5-amino-3-({1-[(1R,2R)-4,4-difluoro-2-phenylcyclohexane-1-carbonyl]-4-hydroxypiperidin-4-yl}methyl)-6-[3-(trifluoromethyl)phenoxy]pyrimidin-4(3H)-one] | 0.264 µM |  |  | 
Nc1c(Oc2ccc(CCCO)cc2)ncn(CC2(O)CCN(C(=O)[C@@H]3CCC(F)(F)C[C@H]3c3ccccc3)CC2)c1=O [Example 29, 5-amino-3-({1-[(1R,2R)-4,4-difluoro-2-phenylcyclohexane-1-carbonyl]-4-hydroxypiperidin-4-yl}methyl)-6-[4-(3-hydroxypropyl)phenoxy]pyrimidin-4(3H)-one] | 0.175 µM |  |  | 
